Laboratory results taken from US12404268B2, “2-heteroaryl aminoquinazolinone derivative” (Sumitomo Pharma Co., Ltd., priority 2020, dated 2025).

Test system: neurons induced to differentiate from SCN1A gene deficient human iPS cells
Assay: Test for measuring hyperexcitation suppression activity (spontaneous calcium oscillation frequency)
Type: cell-based
Settings: Homo sapiens, Neuron; @0.1 μM; read-out: inhibition rate
From the text: Test for Measuring Hyperexcitation Suppression Activity Using Neurons Induced to Differentiate from SCN1A Gene Deficient Human iPS Cells
(1) Induction of Differentiation from Human iPS cells to Neurons
Half of the culture solution was exchanged once every 3 to 4 days.
(2) Fluorescent Calcium Probe Treatment, Addition of Compound, and Evaluation of Intracellular Calcium Concentration
Half of the culture solution was removed on day 60 from induction of differentiation or thereafter. A medium for measurement comprising a fluorescent calcium probe (Molecular Device, product name: FLIPR Calcium 6 Assay Bulk Kit, cat #R8191) was added at an amount equal to the remaining medium. The culture was left standing for 30 minutes and subjected to measurement.
The test compounds were serially diluted with a dimethyl sulfoxide (DMSO) solution so that the final concentration would be 0.1 to 100 μM to prepare a concentrate with a concentration that is 6-fold of the final concentration.
The intensity of fluorescence of a calcium probe was measured over time with FDSS7000EX (Hamamatsu Photonics) to evaluate the change in intracellular calcium concentrations. First, the intensity of fluorescence was measured for 2 minutes. The compound solutions were then added using FDSS7000EX for an additional 8 minute measurement of fluorescence intensity. The frequency of spontaneous calcium oscillation was quantified as an indicator of nerve excitation. With the frequency for 2 minutes before the addition of the compound solutions as 100%, the ratio of frequency for the last 2 minutes after addition of the compound solutions was calculated.

Point of comparison: `Cc1cccc(-n2c(Nc3cccnc3)nc3ccc(F)cc3c2=O)c1` [Example 106], inhibition at 0.1 µM 17%. Against it:
- O=c1c2ccccc2nc(Nc2cccn3cncc23)n1-c1ccccc1 [Example 69, 2-(imidazo[1,5-a]pyridin-8-ylamino)-3-phenylquinazolin-4(3H)-one] — higher, 39%
- Cc1ccc(F)cc1-n1c(Nc2cccnc2)nc2ccc(C#N)cc2c1=O [Example 104, 3-(5-fluoro-2-methylphenyl)-4-oxo-2-(pyridin-3-ylamino)-3,4-dihydroquinazoline-6-carbonitrile] — higher, 29%
- Cc1ccccc1-n1c(Nc2cccnc2)nc2ccc(F)cc2c1=O [Example 107, 6-fluoro-2-(pyridin-3-ylamino)-3-(o-tolyl)quinazolin-4(3H)-one] — higher, 89%
- O=c1c2cc(F)ccc2nc(Nc2cccnc2)n1-c1ccccc1F [Example 108, 6-fluoro-3-(2-fluorophenyl)-2-(pyridin-3-ylamino)quinazolin-4(3H)-one] — higher, 62%
- O=c1c2cc(F)ccc2nc(Nc2cncc(F)c2)n1-c1ccccc1F [Example 111, 6-fluoro-3-(2-fluorophenyl)-2-((5-fluoropyridin-3-yl)amino)quinazolin-4(3H)-one] — higher, 35%
- N#Cc1ccc2nc(Nc3cncc(F)c3)n(-c3ccccc3)c(=O)c2c1 [Example 112, 2-((5-fluoropyridin-3-yl)amino)-4-oxo-3-phenyl-3,4-dihydroquinazoline-6-carbonitrile] — higher, 32%

Same assay, conditions: Homo sapiens, Neuron; @1 μM; read-out: inhibition rate

Point of comparison: `COc1cccc(-n2c(Nc3cccnc3)nc3ccc(F)cc3c2=O)c1` [Example 133], inhibition at 1 µM 51%. Against it:
- O=c1c2cc(F)ccc2nc(Nc2cccnc2)n1C1CCC(F)(F)CC1 [Example 62] — lower, 43%
- O=c1c2ccccc2nc(Nc2cccc3cncn23)n1-c1ccccc1 [Example 63] — lower, 23%
- O=c1c2ccccc2nc(Nc2ccn3ccnc3c2)n1-c1ccccc1 [Example 70] — higher, 58%
- CN1CCC[C@H](n2c(Nc3cccnc3)nc3ccccc3c2=O)C1 [Example 71] — the same, 51%
- C[C@]1(N)CC[C@H](n2c(Nc3cccnc3)nc3ccccc3c2=O)CC1 [Example 73] — higher, 86%
- CN1[C@@H]2CC[C@H]1C[C@H](n1c(Nc3cccnc3)nc3ccccc3c1=O)C2 [Example 76] — lower, 35%
- CN1[C@@H]2CC[C@H]1C[C@@H](n1c(Nc3cccnc3)nc3ccccc3c1=O)C2 [Example 79] — lower, 47%
- C[C@]1(N)CC[C@@H](n2c(Nc3cccnc3)nc3ccc(F)cc3c2=O)CC1 [Example 89] — lower, 20%
- O=c1c2ccccc2nc(Nc2ccc3cnoc3c2)n1-c1ccccc1 [Example 94] — lower, 27%
- O=c1c2ccccc2nc(Nc2ccc3ncoc3c2)n1-c1ccccc1 [Example 98] — the same, 51%
- Cc1ccc(-n2c(Nc3cccnc3)nc3ccc(C#N)cc3c2=O)c(Cl)c1 [Example 103] — higher, 84%
- Cc1ccc(-n2c(Nc3cccnc3)nc3ccc(F)cc3c2=O)cc1 [Example 105, 6-fluoro-2-(pyridin-3-ylamino)-3-(p-tolyl)quinazolin-4(3H)-one] — higher, 100%
- N#Cc1ccc2nc(Nc3cccnc3)n(-c3ccccc3F)c(=O)c2c1 [Example 110] — higher, 66%
- N#Cc1ccc2nc(Nc3cncc(F)c3)n(-c3ccccc3F)c(=O)c2c1 [Example 113, 3-(2-fluorophenyl)-2-((5-fluoropyridin-3-yl)amino)-4-oxo-3,4-dihydroquinazoline-6-carbonitrile] — higher, 91%
- O=c1c2cccc(F)c2nc(Nc2cccnc2)n1-c1ccccc1 [Example 115] — higher, 81%
- O=c1c2ccccc2nc(Nc2cccnc2)n1C12CCN(CC1)CC2 [Example 119] — lower, 20%
- Cc1ccccc1-n1c(Nc2cccnc2)nc2cccc(F)c2c1=O [Example 120] — higher, 69%
- Cc1ccccc1-n1c(Nc2cccnc2)nc2cc(F)ccc2c1=O [Example 121] — lower, 28%
- Cc1ccccc1-n1c(Nc2cccnc2)nc2c(F)cccc2c1=O [Example 122] — higher, 61%
- O=c1c2cc(F)ccc2nc(Nc2cccnc2)n1-c1cccc(F)c1 [Example 123] — higher, 56%
- O=c1c2cc(F)ccc2nc(Nc2cccnc2)n1-c1ccc(F)cc1 [Example 124] — lower, 32%
- Cc1ccnc(Nc2nc3ccc(F)cc3c(=O)n2-c2ccccc2)c1 [Example 125] — lower, 29%
- O=c1c2cc(F)ccc2nc(Nc2cc(F)ccn2)n1-c1ccccc1 [Example 127, 6-fluoro-2-((4-fluoropyridin-2-yl)amino)-3-phenylquinazolin-4(3H)-one] — higher, 96%
- O=c1c2cc(F)ccc2nc(Nc2ccc(F)cn2)n1-c1ccccc1 [Example 128] — higher, 69%
- O=c1c2cc(F)ccc2nc(Nc2cccc(F)n2)n1-c1ccccc1 [Example 129] — lower, 50%
- COc1cccc(Nc2nc3ccc(F)cc3c(=O)n2-c2ccccc2)n1 [Example 130] — lower, 44%
- Cc1cnccc1Nc1nc2ccc(F)cc2c(=O)n1-c1ccccc1 [Example 132] — lower, 38%
- O=c1c2cc(F)ccc2nc(Nc2cccnc2)n1-c1cccc(Cl)c1 [Example 134] — higher, 56%
- O=c1c2cc(F)ccc2nc(Nc2cccnc2)n1-c1ccc(Cl)cc1 [Example 135] — lower, 24%

Same assay, conditions: Homo sapiens, Neuron; @10 μM; read-out: inhibition rate

Point of comparison: `CN1CCC[C@@H](n2c(Nc3cccnc3)nc3ccc(F)cc3c2=O)C1` [Example 100], inhibition at 10 µM 100%. Against it:
- O=c1c2cc(F)ccc2nc(Nc2cccnc2)n1C1CCCCC1 [Example 61] — lower, 79%
- O=c1c2ccccc2nc(Nc2cccn3ccnc23)n1-c1ccccc1 [Example 66] — lower, 62%
- O=c1c2ccccc2nc(Nc2cccc3cnoc23)n1-c1ccccc1 [Example 67] — the same, 100%
- O=c1c2ccccc2nc(Nc2ccc3cncn3c2)n1-c1ccccc1 [Example 68] — the same, 100%
- O=c1c2cc(F)ccc2nc(Nc2cccnc2)n1C12CCN(CC1)CC2 [Example 72] — the same, 100%
- C[C@]1(N)CC[C@@H](n2c(Nc3cccnc3)nc3ccccc3c2=O)CC1 [Example 74] — the same, 100%
- CN1CCC[C@@H](n2c(Nc3cccnc3)nc3ccccc3c2=O)C1 [Example 75] — the same, 100%
- CN1CC[C@H](n2c(Nc3cccnc3)nc3ccccc3c2=O)C1 [Example 77] — lower, 26%
- CN1CCC(n2c(Nc3cccnc3)nc3ccccc3c2=O)CC1 [Example 78] — the same, 100%
- CN1[C@@H]2CC[C@H]1C[C@@H](n1c(Nc3cccnc3)nc3ccc(F)cc3c1=O)C2 [Example 80] — lower, 49%
- CN1CCC[C@H](n2c(Nc3cccnc3)nc3ccc(F)cc3c2=O)C1 [Example 81] — lower, 35%
- CN1CC[C@H](n2c(Nc3cccnc3)nc3ccc(F)cc3c2=O)C1 [Example 82] — lower, 17%
- CN1CC2(CC(n3c(Nc4cccnc4)nc4ccccc4c3=O)C2)C1 [Example 83] — lower, 96%
- C[C@]1(N)CC[C@H](n2c(Nc3cccnc3)nc3ccc(F)cc3c2=O)CC1 [Example 84] — lower, 96%
- CN1[C@@H]2CC[C@H]1C[C@H](n1c(Nc3cccnc3)nc3ccc(F)cc3c1=O)C2 [Example 85] — lower, 59%
- N#Cc1ccc2nc(Nc3ccccn3)n(-c3ccccc3)c(=O)c2c1 [Example 88] — lower, 95%
- Cn1cnc2c(Nc3nc4ccccc4c(=O)n3-c3ccccc3)cccc21 [Example 93] — lower, 53%
- O=c1c2ccccc2nc(Nc2cccc3ocnc23)n1-c1ccccc1 [Example 99] — lower, 94%
- CN1CCC(n2c(Nc3cccnc3)nc3ccc(F)cc3c2=O)CC1 [Example 101] — lower, 6%
- COc1ccc(-n2c(Nc3cccnc3)nc3ccc(C#N)cc3c2=O)c(C)c1 [Example 102, 3-(4-methoxy-2-methylphenyl)-4-oxo-2-(pyridin-3-ylamino)-3,4-dihydroquinazoline-6-carbonitrile] — lower, 92%
- O=c1c2cc(F)ccc2nc(Nc2ncccc2F)n1-c1ccccc1 [Example 126] — lower, 80%
- O=c1c2cc(F)ccc2nc(Nc2ccncc2)n1-c1ccccc1 [Example 131] — the same, 100%

Same assay, conditions: Homo sapiens, Neuron; @100 μM; read-out: inhibition rate

Point of comparison: `COc1cccc2nc(Nc3cccnc3)n(-c3ccccc3)c(=O)c12` [Example 92], inhibition at 100 µM 38%. Against it:
- Cc1ccc2c(=O)n(-c3ccccc3)c(Nc3cccnc3)nc2c1 [Example 86] — lower, 31%
- CN1CC[C@@H](n2c(Nc3cccnc3)nc3ccccc3c2=O)C1 [Example 96] — higher, 100%
- CN1CC[C@@H](n2c(Nc3cccnc3)nc3ccc(F)cc3c2=O)C1 [Example 97] — higher, 100%
- COc1cccc2c(=O)n(-c3ccccc3)c(Nc3cccnc3)nc12 [Example 116] — higher, 59%
- O=c1c2c(F)cccc2nc(Nc2cncc(F)c2)n1-c1ccccc1 [Example 117] — higher, 71%
- Cc1cccnc1Nc1nc2ccc(F)cc2c(=O)n1-c1ccccc1 [Example 136] — lower, 5%
